Test results published in patent US9714249B2 (Novartis AG, priority 2013, dated 2017).
pIC50: −log10 of the molar value.

Assays:
BRD2 (His-Brd2(60-472)) = BRD2 (His-Brd2(60-472)) (Homo sapiens (Human), UniProt P25440); test: TR-FRET in-vitro binding assay for BRD2; settings: acetyl-histone H4 peptide
Protocol: All assays were performed in 384 well microtiter plates. Each assay plate contained 8-point serial dilutions for 40 test compounds, plus 16 high- and 16 low controls. Liquid handling and incubation steps were done on an Innovadyne Nanodrop Express equipped with a robotic arm (Thermo CatX, Perkin Elmer/Caliper Twister II) and an incubator (Liconic STX40, Thermo Cytomat 2C450). The assay plates were prepared by addition of 50 nl per well of compound solution in 90% DMSO HummingBird nanodispenser (Zinsser Analytic). The assay was started by stepwise addition of 4.5 μl per well of bromo domain protein (50 mM HEPES, pH 7.5, 0.005% Tween20, 0.1% BSA, 50 mM NaCl, 45 nM His-Brd2(60-472) or 45 nM His-Brd3(20-477) or 45 nM His-Brd4(44-477) all proteins produced in-house) and 4.5 μl per well of peptide solution (50 mM HEPES, pH 7.5, 0.005% Tween20, 0.1% BSA, 50 mM NaCl, 60 nM acetyl-histone H4 (AcK 5, 8, 12, 16) (Biosyntan GmbH)). Reactions were incubated at 30° C. for 35 minutes. Subsequently 4.5 μl per well detection mix (50 mM HEPES, pH 7.5, 0.005% Tween20, 0.1% BSA, 50 mM NaCl, 3 nM Eu-labeled anti-His6 antibody, 21 nM streptavidin-allophycocyanin) were added. After 35 minutes incubation at 30° C., plates were measured in a Perkin Elmer EnVision multilabel reader. Concentrations causing 50% inhibition (1050) values were determined from percent inhibition values at different compound concentrations by non-linear regression analysis.
Test compounds were dissolved in DMSO (10 mM) and transferred into 1.4 mL flat bottom or V-shaped Matrix tubes carrying a unique 2D matrix. The stock solutions were stored at […] if not used immediately. For the test procedure the vials were defrosted and identified by a scanner whereby a working sheet was generated that guided the subsequent working steps. Compound dilutions were made in 96 well plates. This format enabled the assay of maximally 40 individual test compounds at 8 concentrations (single points) including 4 reference compounds, if desired (known BET inhibitors from the prior art, for this and other assays of the type disclosed herein). The dilution protocol included the production of “pre-dilution plates”, “master plates” and “assay plates”.
Pre-dilution plates: 96 polypropylene well plates were used as pre-dilution plates. A total of 4 pre-dilution plates were prepared including 10 test compounds each on the plate positions A1-A10, one standard compound at A11 and one DMSO control at A12. All dilution steps were done on a HamiltonSTAR robot. Master plates: 30 μL of individual compound dilutions including standard compound and controls of the 4 “pre-dilution plates” were transferred into a 384 “master plate” including the following concentrations 10000, 3003, 1000, 300, 100, 30, 10 and 3 μM, respectively in 90% of DMSO. Assay plates: Identical “assay plates” were then prepared by pipetting 50 nL each of compound dilutions of the “master plates” into 384-well “assay plates” by means of a HummingBird 384-channel dispenser. These plates were used directly for the assay which was performed in a total volume of 13.55 μL. This led to a final compound concentration of 37, 11, 3.7, 1.1, 0.37, 0.11, 0.037 and 0.011 μM and a final DMSO concentration of 0.37% in the assay. Cell Growth Inhibition Assay

MV-4-11 cells = test: Cell growth inhibition assay (CellTiter-Glo), MV-4-11; format: cell-based, human; settings: MV-4-11, 4 days; for GI50: half-maximal growth inhibition; for MV-4-11 TGI: total growth inhibition
Protocol: (§1) The human leukemia cell lines MV-4-11, THP-1 and K-562 were employed to characterize the effect of BET inhibitors on cellular proliferation and viability. Cells were obtained from the American Type Culture Collection (ATCC) and cultured at 37° C. in a humidified 5% CO2 incubator in the following media: MV-4-11: DMEM high glucose (Animed #1-26F01-I), 10% FCS (Animed #2-01F26-I), 4 mM L-Glutamine (Animed #5-10K50), 1 mM Sodium Pyruvate (Animed # G03625P), 1× Penicillin-Streptomycin (Animed # F12478P); K-562: Iscove's MEM (Animed #1-28F16-I), 10% FCS (Animed #2-01F26-I), 4 mM L-Glutamine (Animed #5-10K50), 1× Penicillin-Streptomycin (Animed # F12478P); THP-1: RPMI-1640 (Animed #1-41F01-I), 10% FCS (Animed #2-01F26-I), 2 mM L-Glutamine (Animed #5-10K50), 10 mM HEPES (Animed #5-31F100), 1 mM Sodium Pyruvate (Animed # G03625P), 1× Penicillin-Streptomycin (Animed # F12478P). The AML lines MV-4-11 and THP-1 are very sensitive to BET inhibitors and show massive cell death upon BET inhibition (Zuber et al., Nature, 478 (2011), 524-8). Compound-mediated suppression of cell proliferation/viability was assessed by quantification of cellular ATP levels using the CellTiter-Glo (CTG) reagent (Promega). Briefly, cells were seeded in 20 μl fresh medium into 384-well plates, followed by addition of 5 μl medium containing compound dilutions at 5-fold their final intended concentration. Dose-response effects were assessed by 3-fold serial dilutions of the test compound, starting at 10 μM. Following incubation of the cells for 4 days at 37° C. and 5% CO2, the effect of inhibitors on cell viability was quantified following addition of 20 μl CTG and luminescence quantification (integration time: 100 ms) as per vendor manual, using a correspondingly equipped Tecan M200 multi-mode platereader (TECAN, Switzerland). For data analysis, the assay background value determined in wells containing medium, but no cells, was subtracted from all data points. To enable differentiation of cytotoxic from cytostatic compounds, the number of viable cells is assessed relative to that observed at the time of compound addition using a separate cell plate (day 0). The effect of a particular test compound concentration on cell proliferation/viability is expressed as percentage of the background- and day 0-corrected luminescence reading obtained for cells treated with vehicle only (DMSO, 0.1% final concentration), which is set as 100%, whereas that luminescence reading for wells containing medium is set as −100%. Compound concentrations leading to half-maximal (1050) and total growth inhibition (TGI) were determined using standard four parameter curve fitting.

THP-1 cells = test: Cell growth inhibition assay (CellTiter-Glo), THP-1; format: cell-based, human; settings: THP-1, 4 days; for GI50: half-maximal growth inhibition; for THP-1 TGI: total growth inhibition
Protocol: as §1

K-562 cells = test: Cell growth inhibition assay (CellTiter-Glo), K-562; format: cell-based, human; settings: K-562, 4 days; for GI50: half-maximal growth inhibition; for K-562 TGI: total growth inhibition
Protocol: as §1

Chain of BRD2 (His-Brd2(60-472)) (P25440 60-472, species assumed): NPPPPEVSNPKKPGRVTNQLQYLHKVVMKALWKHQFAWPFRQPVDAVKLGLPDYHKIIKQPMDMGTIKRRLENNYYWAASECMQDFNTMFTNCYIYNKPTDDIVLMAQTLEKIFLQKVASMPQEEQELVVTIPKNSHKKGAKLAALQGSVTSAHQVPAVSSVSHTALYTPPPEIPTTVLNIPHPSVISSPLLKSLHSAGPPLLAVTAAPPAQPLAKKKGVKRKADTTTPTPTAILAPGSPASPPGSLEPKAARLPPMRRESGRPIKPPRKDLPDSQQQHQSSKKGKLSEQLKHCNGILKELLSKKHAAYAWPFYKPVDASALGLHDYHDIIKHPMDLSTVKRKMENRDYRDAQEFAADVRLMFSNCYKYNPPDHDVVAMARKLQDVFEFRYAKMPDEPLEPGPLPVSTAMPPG

## Cc1nn(C)c2c1C(=O)N(c1cc(C)c(=O)n(C)c1)C2c1ccc(Cl)cc1 (stereo not shown) [Example 10, 6-(4-chlorophenyl)-5-(1,5-dimethyl-6-oxo-1,6-dihydropyridin-3-yl)-1,3-dimethyl-5,6-dihydropyrrolo[3,4-c]pyrazol-4(1H)-one]
BRD2 (His-Brd2(60-472))
  pIC50: 7.08
MV-4-11 cells; Homo sapiens, MV4-11, 96 h
  GI50: 39.4 nM
MV-4-11 cells
  MV-4-11 TGI: 65.5 nM
THP-1 cells; Homo sapiens, 96 h
  GI50: 76.4 nM
THP-1 cells
  THP-1 TGI: 132 nM
K-562 cells; Homo sapiens, K562, 96 h
  GI50: 336 nM
K-562 cells
  K-562 TGI: >10000 nM

## Cc1cc(N2C(=O)c3c(C4CC4)nn(CCO)c3C2c2ccc(Cl)cc2)cn(C)c1=O (stereo not shown) [Example 3, 6-(4-chlorophenyl)-3-cyclopropyl-5-(1,5-dimethyl-6-oxo-1,6-dihydropyridin-3-yl)-1-(2-hydroxyethyl)-5,6-dihydropyrrolo[3,4-c]pyrazol-4(1H)-one]
BRD2 (His-Brd2(60-472))
  pIC50: 7.38
MV-4-11 cells; Homo sapiens, MV4-11, 96 h
  GI50: 37.5 nM
MV-4-11 cells
  MV-4-11 TGI: 64 nM
THP-1 cells; Homo sapiens, 96 h
  GI50: 90.1 nM
THP-1 cells
  THP-1 TGI: 264 nM
K-562 cells; Homo sapiens, K562, 96 h
  GI50: 268 nM
K-562 cells
  K-562 TGI: >10000 nM

## COc1ncc(-n2nc3c(c2C)C(=O)N(c2cc(Cl)c(=O)n(C)c2)C3c2ccc(Cl)cc2)cn1 (stereo not shown) [Example 8b, 5-(5-chloro-1-methyl-6-oxo-1,6-dihydropyridin-3-yl)-6-(4-chlorophenyl)-2-(2-methoxypyrimidin-5-yl)-3-methyl-5,6-dihydropyrrolo[3,4-c]pyrazol-4(2H)-one]
BRD2 (His-Brd2(60-472))
  pIC50: 6.80
MV-4-11 cells; Homo sapiens, MV4-11, 96 h
  GI50: 117 nM
MV-4-11 cells
  MV-4-11 TGI: 195 nM
THP-1 cells; Homo sapiens, 96 h
  GI50: 293 nM
THP-1 cells
  THP-1 TGI: 562 nM
K-562 cells; Homo sapiens, K562, 96 h
  GI50: 999 nM
K-562 cells
  K-562 TGI: >10000 nM

## COc1ncc(-n2nc(C)c3c2C(c2ccc(Cl)cc2)N(c2cc(C)c(=O)n(C)c2)C3=O)cn1 (stereo not shown) [Example 21a, 6-(4-chlorophenyl)-5-(1,5-dimethyl-6-oxo-1,6-dihydropyridin-3-yl)-1-(2-methoxypyrimidin-5-yl)-3-methyl-5,6-dihydropyrrolo[3,4-c]pyrazol-4(1H)-one]
BRD2 (His-Brd2(60-472))
  pIC50: 7.20
MV-4-11 cells; Homo sapiens, MV4-11, 96 h
  GI50: 115 nM
MV-4-11 cells
  MV-4-11 TGI: 177 nM
THP-1 cells; Homo sapiens, 96 h
  GI50: 166 nM
THP-1 cells
  THP-1 TGI: 331 nM
K-562 cells; Homo sapiens, K562, 96 h
  GI50: 404 nM
K-562 cells
  K-562 TGI: >10000 nM

## COc1ncccc1-c1nn(C)c2c1C(=O)N(c1cc(C)c(=O)n(C)c1)C2c1ccc(Cl)cc1 (stereo not shown) [Example 15, 6-(4-chlorophenyl)-5-(1,5-dimethyl-6-oxo-1,6-dihydropyridin-3-yl)-3-(2-methoxypyridin-3-yl)-1-methyl-5,6-dihydropyrrolo[3,4-c]pyrazol-4(1H)-one]
BRD2 (His-Brd2(60-472))
  pIC50: 7.15
MV-4-11 cells; Homo sapiens, MV4-11, 96 h
  GI50: 54.6 nM
MV-4-11 cells
  MV-4-11 TGI: 92.4 nM
THP-1 cells; Homo sapiens, 96 h
  GI50: 67.8 nM
THP-1 cells
  THP-1 TGI: 143 nM
K-562 cells; Homo sapiens, K562, 96 h
  GI50: 640 nM
K-562 cells
  K-562 TGI: >10000 nM

## CNC1=C(C(=N)C2CC2)C(=O)N(c2cc(C)c(=O)n(C)c2)[C@@H]1c1ccc(Cl)cc1 [Example 2]
BRD2 (His-Brd2(60-472))
  pIC50: 7.66
MV-4-11 cells
  GI50: 15.4 nM
  MV-4-11 TGI: 30.3 nM
THP-1 cells
  GI50: 21.9 nM
  THP-1 TGI: 46.8 nM
K-562 cells
  GI50: 121 nM
  K-562 TGI: >10000 nM

## COc1ncccc1-n1nc2c(c1C)C(=O)N(c1cc(C)c(=O)n(C)c1)C2c1ccc(Cl)cc1 (stereo not shown) [Example 17b, 6-(4-chlorophenyl)-5-(1,5-dimethyl-6-oxo-1,6-dihydropyridin-3-yl)-2-(2-methoxypyridin-3-yl)-3-methyl-5,6-dihydropyrrolo[3,4-c]pyrazol-4(2H)-one]
BRD2 (His-Brd2(60-472))
  pIC50: 7.28
MV-4-11 cells; Homo sapiens, MV4-11, 96 h
  GI50: 27 nM
MV-4-11 cells
  MV-4-11 TGI: 34.3 nM
THP-1 cells; Homo sapiens, 96 h
  GI50: 72.4 nM
THP-1 cells
  THP-1 TGI: 117 nM
K-562 cells; Homo sapiens, K562, 96 h
  GI50: 154 nM
K-562 cells
  K-562 TGI: >10000 nM

## Cc1cc(N2C(=O)c3c(C4CC4)nn(-c4ccnn4C)c3C2c2ccc(Cl)cc2)cn(C)c1=O (stereo not shown) [Example 5, 6-(4-chlorophenyl)-3-cyclopropyl-5-(1,5-dimethyl-6-oxo-1,6-dihydropyridin-3-yl)-1-(1-methyl-1H-pyrazol-5-yl)-5,6-dihydropyrrolo[3,4-c]pyrazol-4(1H)-one]
BRD2 (His-Brd2(60-472))
  pIC50: 7.13
MV-4-11 cells; Homo sapiens, MV4-11, 96 h
  GI50: 53.8 nM
MV-4-11 cells
  MV-4-11 TGI: 100 nM
THP-1 cells; Homo sapiens, 96 h
  GI50: 101 nM
THP-1 cells
  THP-1 TGI: 179 nM
K-562 cells; Homo sapiens, K562, 96 h
  GI50: 658 nM
K-562 cells
  K-562 TGI: >10000 nM

## COc1ncccc1-n1nc2c(c1C)C(=O)N(c1cc(Cl)c(=O)n(C)c1)C2c1ccc(Cl)cc1 (stereo not shown) [Example 7b, 5-(5-chloro-1-methyl-6-oxo-1,6-dihydropyridin-3-yl)-6-(4-chlorophenyl)-2-(2-methoxypyridin-3-yl)-3-methyl-5,6-dihydropyrrolo[3,4-c]pyrazol-4(2H)-one]
BRD2 (His-Brd2(60-472))
  pIC50: 7.49
MV-4-11 cells; Homo sapiens, MV4-11, 96 h
  GI50: 56.7 nM
MV-4-11 cells
  MV-4-11 TGI: 82.4 nM
THP-1 cells; Homo sapiens, 96 h
  GI50: 104 nM
THP-1 cells
  THP-1 TGI: 285 nM
K-562 cells; Homo sapiens, K562, 96 h
  GI50: 548 nM
K-562 cells
  K-562 TGI: >10000 nM

## COc1ncc(-n2nc3c(c2C)C(=O)N(c2cc(C)c(=O)n(C)c2)C3c2ccc(Cl)cc2)c(OC)n1 (stereo not shown) [Example 14, 6-(4-chlorophenyl)-2-(2,4-dimethoxypyrimidin-5-yl)-5-(1,5-dimethyl-6-oxo-1,6-dihydropyridin-3-yl)-3-methyl-5,6-dihydropyrrolo[3,4-c]pyrazol-4(2H)-one]
BRD2 (His-Brd2(60-472))
  pIC50: 7.03
MV-4-11 cells; Homo sapiens, MV4-11, 96 h
  GI50: 122 nM
MV-4-11 cells
  MV-4-11 TGI: 203 nM
THP-1 cells; Homo sapiens, 96 h
  GI50: 219 nM
THP-1 cells
  THP-1 TGI: 352 nM
K-562 cells; Homo sapiens, K562, 96 h
  GI50: 615 nM
K-562 cells
  K-562 TGI: >10000 nM
